In ChEMBL document CHEMBL5325484, “Quinolinetrione-tacrine hybrids as multi-target-directed ligands against Alzheimer's disease” (Bioorg Med Chem, 2023):

How the values were obtained:
Acetylcholinesterase = Acetylcholinesterase (Homo sapiens, UniProt P22303); assay: Inhibition of recombinant human AChE using acetylthiocholine iodide as substrate preincubated with compound for 20 mins followed by substrate addition and measured after 240 sec by spectrophotometer based Ellman's method
Cholinesterase = Cholinesterase (Homo sapiens, UniProt P06276); assay: Inhibition of human serum BChE using butyrylthiocholine iodide as substrate preincubated with compound for 20 mins followed by substrate addition and measured after 240 sec by spectrophotometer based Ellman's method; assay type: cell-free
Chain of Cholinesterase (P06276 whole entry): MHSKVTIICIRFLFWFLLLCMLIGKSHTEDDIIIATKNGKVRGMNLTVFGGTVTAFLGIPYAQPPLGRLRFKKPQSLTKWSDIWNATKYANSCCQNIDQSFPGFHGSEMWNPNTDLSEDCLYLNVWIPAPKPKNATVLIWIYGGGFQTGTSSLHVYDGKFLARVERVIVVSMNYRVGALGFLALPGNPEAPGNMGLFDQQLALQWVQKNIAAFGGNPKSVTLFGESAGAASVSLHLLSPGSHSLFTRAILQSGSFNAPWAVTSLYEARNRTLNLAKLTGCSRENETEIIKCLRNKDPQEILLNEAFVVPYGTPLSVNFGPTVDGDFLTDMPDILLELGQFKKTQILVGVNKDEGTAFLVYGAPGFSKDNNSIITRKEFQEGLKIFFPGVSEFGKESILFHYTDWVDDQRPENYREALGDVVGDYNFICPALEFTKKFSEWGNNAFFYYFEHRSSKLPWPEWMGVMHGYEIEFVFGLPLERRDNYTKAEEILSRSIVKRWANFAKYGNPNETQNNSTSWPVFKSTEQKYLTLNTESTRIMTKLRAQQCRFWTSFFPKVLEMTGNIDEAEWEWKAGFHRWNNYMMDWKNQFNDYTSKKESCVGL

HepG2 [1] = assay: Cytotoxicity against human HepG2 cells assessed as reduction in cell viability at 1 uM incubated for 24 hrs by MTT assay; assay type: toxicity, cell-based; details: hepg2, 24 h
HepG2 [2] = assay: Cytotoxicity against human HepG2 cells assessed as reduction in cell viability at 100 uM incubated for 24 hrs by MTT assay; assay type: toxicity, cell-based; details: hepg2, 24 h
HepG2 [3] = assay: Cytotoxicity against human HepG2 cells assessed as reduction in cell viability at 10 uM incubated for 24 hrs by MTT assay relative to control; assay type: toxicity, cell-based; details: hepg2, 24 h

Chain of Acetylcholinesterase (P22303 whole entry): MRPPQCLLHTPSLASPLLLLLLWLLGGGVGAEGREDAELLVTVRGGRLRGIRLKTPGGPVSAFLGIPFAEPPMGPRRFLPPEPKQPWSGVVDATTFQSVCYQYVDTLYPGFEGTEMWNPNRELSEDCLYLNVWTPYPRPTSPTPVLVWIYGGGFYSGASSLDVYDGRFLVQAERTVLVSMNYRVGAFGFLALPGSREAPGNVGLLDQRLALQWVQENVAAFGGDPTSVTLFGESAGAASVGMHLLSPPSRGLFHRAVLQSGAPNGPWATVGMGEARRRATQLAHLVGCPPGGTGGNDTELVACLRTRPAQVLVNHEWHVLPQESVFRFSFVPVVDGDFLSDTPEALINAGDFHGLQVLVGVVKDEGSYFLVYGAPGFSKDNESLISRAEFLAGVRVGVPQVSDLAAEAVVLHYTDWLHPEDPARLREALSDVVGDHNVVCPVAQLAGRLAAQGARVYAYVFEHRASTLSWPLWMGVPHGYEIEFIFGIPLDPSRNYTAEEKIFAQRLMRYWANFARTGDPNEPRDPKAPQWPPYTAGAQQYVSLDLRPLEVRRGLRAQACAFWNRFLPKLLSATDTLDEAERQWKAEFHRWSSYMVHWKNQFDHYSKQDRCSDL

SMILES | IC50 (Acetylcholinesterase) [µM] | IC50 (Cholinesterase) [µM] | Activity (HepG2 [1]) | Activity (HepG2 [2]) | Activity (HepG2 [3]) [%]
Cc1cc(=O)[nH]c2c1C(=O)C(NCCNc1c3c(nc4cc(Cl)ccc14)CCCC3)=CC2=O | 0.121 | 2.1 | Non-Toxic | Toxic | 50
Cc1cc(=O)[nH]c2c1C(=O)C(NCCCNc1c3c(nc4cc(Cl)ccc14)CCCC3)=CC2=O | 0.0111 | 1.34 | Non-Toxic | Toxic | 50
Cc1cc(=O)[nH]c2c1C(=O)C(NCCCCNc1c3c(nc4cc(Cl)ccc14)CCCC3)=CC2=O | 0.00558 | 2.83 | Non-Toxic | Toxic | 50
Cc1cc(=O)[nH]c2c1C(=O)C(NCCNc1c3c(nc4ccccc14)CCCC3)=CC2=O | 0.667 | 0.182 | Non-Toxic | Toxic | 12
Cc1cc(=O)[nH]c2c1C(=O)C(NCCCCNc1c3c(nc4ccccc14)CCCC3)=CC2=O | 0.0583 | 0.109 | Non-Toxic | Toxic | 14
